What was measured:
Assay type in all cases: in vivo
[1] = system: laboratory mice, strain CD-1; experiment: Open field test (locomotor activity, sedative effect); on Open Field Test No Evidence of Hyperlocomotion: key: −: the desired effect was not observed; −/+: the desired effect was insufficient; +: the desired effect was observed; on Sedative Effect The Rapid Onset of Sedation at a Dose of 100 mg/kg: key: −: the desired effect was not observed; −/+: the desired effect was insufficient; +: the desired effect was observed; conditions: for pathway in open field: dose 10 and 100 mg/kg, vs intact mice; for locomotor activity over time: higher dose of 10 resp. 100 mg/kg; for Sedative Effect The Rapid Onset of Sedation at a Dose of 100 mg/kg / Open Field Test No Evidence of Hyperlocomotion: intraperitoneally; for Open Field Test No Evidence of Hyperlocomotion: 0.1-100 mg/kg; for hyperlocomotion in open field: lower doses (below 10 mg/kg)
Protocol: (§1) In the Experimental Part 1 were used adults (30-35 g) male laboratory mice, strain CD-1 from Velaz facility, Czech Republic. Mice were housed in plastic boxes with a 12-hour light cycle (lights on at 7:00 pm). Mice had free access to food and water.
(§2) Amphiphilic steroid compounds were dissolved in a solution of 3 g (2-hydroxypropyl)-β-cyclodextrin (CDX, Sigma-Aldrich) and 157 mg of citric acid ([…], Sigma-Aldrich) in 30 ml of distilled water, the pH was adjusted to 7.4 using sodium hydroxide (NaOH, Sigma-Aldrich). Thus there were prepared solutions of the four steroids for application rates of 0.1, 1, 10 and 100 mg/kg.
The efficacy of the studied compounds was compared to known NMDA antagonist is memantine (Sigma-Aldrich) at a dose of 5 mg/kg in rats, ketamine (Vétoquinol) at 10 mg/kg and dizocilpine (MK-801) (Sigma-Aldrich) at a dose of 0.3 mg/kg in mice. These three compounds were dissolved in saline (B Braun).
The substances at dose 0.1-100 mg/kg were administered before the test to mice intraperitoneally. As controls were used intact mice and mice that received CDX solution. Also, MK-801 (0.3 mg/kg) was used for comparison of effects of noncompetitive antagonist of NMDA receptors. From the experiment was evaluated overall track anywhere in the arena as an indicator of locomotor activity. In addition, it was judged a ten-minute segments track during each experiment. Based on these values, it was possible to determine the latency time of onset of action and changes in locomotor activity over time.
In this arrangement, the sedative effect of the studied compounds at the highest dose was evaluated. […] Over time was monitored locomotor activity and possible changes characterized by tremor, ataxia, restlessness, or sedation or general anesthesia (absence of response to stimuli, decreased muscle tone).

[2] = system: laboratory mice, strain CD-1; experiment: Forced swimming test (antidepressant effect); on Forced Swimming Test Reduced Floating: key: −: the desired effect was not observed; −/+: the desired effect was insufficient; +: the desired effect was observed
Protocol: as §1
This assay was used to monitor the antidepressant effect. Animals float 6 minutes in acrylic cylinder in water at 24° C. A period of immobility is evaluated. The reduction is a manifestation of anti-depressant properties of drugs.

[3] = system: laboratory mice, strain CD-1; experiment: Elevated plus maze (anxiety); conditions: vs saline and CDX controls
Protocol: as §1, §2
The elevated plus maze (EPM) experiment was used to determine the effect of compounds on anxiety of animals at a dose of 1 mg/kg. Two control groups of animals were used to which was applied physiological saline and CDX solution, respectively. A noncompetitive NMDA receptor antagonist—ketamine (10 mg/kg) was given to a comparative group. The compounds were administered to mice intraperitoneally 30 minutes before testing in the EPM.

[4] = 1 mg/kg i.p., 30 minutes before testing

| Compound | pathway in open field [1] | locomotor activity over time [1] | Sedative Effect The Rapid Onset of Sedation at a Dose of 100 mg/kg [1] | Forced Swimming Test Reduced Floating [2] | signs of sleepiness and overall sedation ([1]; 10 resp. 100 mg/kg, between the 20th and 40th minute) | Open Field Test No Evidence of Hyperlocomotion [1] | hyperlocomotion in open field [1] | number of entries into the open arms [3, 4] | total time spent in the open arms [3, 4] | number of entries into the open arms ([3]; 10 mg/kg) | total time spent in the open arms ([3]; 10 mg/kg) | flotation (immobility) ([2]; 1 mg/kg) | latency to the first flotation ([2]; 1 mg/kg) |
| --- | --- | --- | --- | --- | --- | --- | --- | --- | --- | --- | --- | --- | --- |
| C[C@@]12CCCCC1[C@@H]1CC[C@@H]3C[C@H](OC(=O)[C@@H](N)CCC(=O)O)CC[C@]3(C)[C@H]1CC2 (stereo partly drawn) [Compound 106, (4S)-4-Amino-5-(((2R,4aS,4bS,6aS,10bS,12aR)-4a,6a-dimethyloctadekahydrochrysen-2-yl)oxy)-5-oxopentanoic acid] | significant reduction | significant decrease | − | − |  |  |  |  |  |  |  |  |  |
| C[C@@]12CCC[C@H]1[C@@H]1CC[C@@H]3C[C@H](OC(=O)[C@@H](N)CCC(=O)O)CC[C@]3(C)[C@H]1CC2 [Compound 130, (4S)-4-Amino-5-(((3R,5R,8S,9S,10S,13S,14S)-10,13-dimethylhexadecahydro-1H-cyclopenta[a]phenanthren-3-yl)oxy)-5-oxopentanoic acid] | significant reduction | significant decrease | + | + | most pronounced | + | not (unlike groups with dizocilpine) observed hyperlocomotion | significantly increased | significantly increased | not significantly altered | significant increase | significant decrease | longer latency |
| Pyridinium (3S,3aS,5bR,7aR,9R,11aS,11bS,13aR)-3,11a-dimethylhexadecahydro-1H,3H-naphtho[2′,1′:4,5]indeno[1,7a-c]furan-9-yl 9-sulfate [Compound 124] | significant reduction | significant decrease | − | − |  | + | not (unlike groups with dizocilpine) observed hyperlocomotion |  |  |  |  |  |  |
